The source made the active and inactive calls.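 Rule for the calls: active = mean EC50, the dose giving half of full activation, below a set limit (actives reach about 84 µM in these data); inactive = the rest.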 Bounds are passed on as bounds.

This test deals with Alkaline phosphatase, placental type (Homo sapiens) (UniProt P05187). In words: PLAP enzyme activators, dose response, selectivity assay for human IAP activator project, biochemical, uHTS hits, luminescence (AID 488888). The following applies: purified PLAP, CDP-Star luminescence, 30 min.
Sequence of Alkaline phosphatase, placental type (Homo sapiens) (P05187 whole entry, looked up): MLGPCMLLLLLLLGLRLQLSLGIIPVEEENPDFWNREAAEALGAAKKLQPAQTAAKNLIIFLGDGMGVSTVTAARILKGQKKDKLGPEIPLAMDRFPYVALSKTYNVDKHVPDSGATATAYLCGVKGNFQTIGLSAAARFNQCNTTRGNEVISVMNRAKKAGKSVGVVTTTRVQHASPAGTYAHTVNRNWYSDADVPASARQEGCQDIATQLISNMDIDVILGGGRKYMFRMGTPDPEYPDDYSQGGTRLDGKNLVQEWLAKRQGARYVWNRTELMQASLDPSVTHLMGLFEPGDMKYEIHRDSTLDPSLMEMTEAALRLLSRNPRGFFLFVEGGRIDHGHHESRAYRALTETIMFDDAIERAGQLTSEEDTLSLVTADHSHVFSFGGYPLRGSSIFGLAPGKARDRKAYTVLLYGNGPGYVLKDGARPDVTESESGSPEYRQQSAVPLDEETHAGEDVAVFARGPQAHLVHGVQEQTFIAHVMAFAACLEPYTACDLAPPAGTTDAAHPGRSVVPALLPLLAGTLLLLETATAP
The EC50 is the concentration at which the effect is half-maximal. As to `C=CCN1C(=O)C2(NNc3ccccc3O2)c2ccccc21` (stereo not given), the EC50 was 0.718 µM.
Consider `CCOc1ccccc1CN1CCC(n2nccc2NC(=O)CCc2ccccc2)CC1`, for which the half-maximal effective concentration (EC50) was 84 µM.
Take `CC(C)Oc1ccc(C(=O)Nc2ncn[nH]2)cc1`: the EC50 was 24.1 µM.
In the case of `Cc1ccc(-c2cc(C(=O)N/N=C/c3ccccc3O)n[nH]2)o1` it was 8.04 µM; in that of `COc1cc(NC(=O)NCC2CCN(Cc3ccccc3Cl)CC2)cc(OC)c1OC`, 64.2 µM; in that of `O=C(N/N=C/c1c(F)cccc1Cl)c1cc(C2CC2)[nH]n1`, 66.8 µM.
Take `O=C(O)C1OC(Oc2c(-c3ccc(O)c(O)c3)oc3cc(O)cc(O)c3c2=O)C(O)C(O)C1O` (stereo not given): the EC50 is > 100 µM (inactive).
In the case of `Cc1ccc(S(=O)(=O)NCCC(=O)NNC(=O)COc2ccc(Br)cc2)cc1C` it was 16.7 µM; in that of `Cc1nc(Nc2nc3c(c(=O)[nH]2)CCC3)nc2ccccc12`, 18.7 µM; in that of `NC(CO)C(=O)NNCc1ccc(O)c(O)c1O` (stereo not given), 11.5 µM.
For `CC(C)CC(=O)NC(=S)NNC(=O)c1ccc(NC(=O)C2CCCCC2)cc1`, the EC50 is 61.6 µM.
Consider `CCn1c(C)nc2cc(C(=O)NNC(=S)Nc3ccccc3)ccc21`, for which the concentration for a half-maximal effect (EC50) was 14.7 µM.
As for `Cc1cccc(OCC(=O)NNC(=O)c2ccc3nc[nH]c3c2)c1`, the half-maximal effective concentration (EC50) is 15.6 µM.
As to `Cc1cc(C)cc(CC(Cc2nc3ccccc3[nH]2)c2nc3ccccc3[nH]2)c1` (stereo not given), the EC50 was 82.7 µM.
With `O=C(NNC(=S)NC(=O)c1ccccc1)c1cccnc1`, the half-maximal effective concentration (EC50) was 18.7 µM.
Take `C=CCn1c(O)c(N=Nc2ccccc2O)c2ccccc21`: the 50% effective concentration (EC50) is 0.663 µM.
As to `O=C(NNC(=S)NC1CCCCC1)c1ccccc1Br`, the EC50 is 16.4 µM.
On to `O=c1oc(-c2ccc(O)c(O)c2)cc2cc(O)cc(O)c12`, for which the EC50 was > 100 µM (inactive).
Turning to `CC(C)Oc1ccc(CCC(=O)NNC(=S)NCc2ccccc2)cc1`, the EC50 was 21.2 µM.
`Cc1cc(OCC(=O)Nc2ncn[nH]2)ccc1Cl`: the concentration giving a half-maximal response (EC50) is 17 µM.
To `O=C(/C=C/c1cccs1)NC(=S)NNC(=O)c1ccccc1O` belongs 12.7 µM.
Turning to `O=C(Nc1ccon1)c1nc[nH]c1C(=O)NCc1ccccc1`, the concentration giving a half-maximal response (EC50) is 15.5 µM.
`CC(C)C(=O)NC(=S)Nc1ccccc1C(=O)Nc1ccccc1`: the 50% effective concentration (EC50) was 9.82 µM.
For the molecule `CC(C)(C)OC(=O)N1CCC(NC(=O)c2[nH]cnc2C(=O)Nc2ccon2)CC1`, the EC50 was 15.2 µM.
In the case of `CC(NS(=O)(=O)c1ccc(Br)cc1)C(=O)Nc1nc2ccccc2[nH]1` (stereo not given) it was 14.7 µM.
Regarding `COc1ccc(CN2CCC(n3nccc3NC(=O)CCCc3ccccc3)CC2)cc1C`, the concentration for a half-maximal effect (EC50) was 71.6 µM.
With `CCc1ccc(/C=N/Nc2ncnc3nc[nH]c23)cc1`, the EC50 was 13.4 µM.
As for `O=Nc1[nH]c(=O)c(/C=C(\O)c2ccccc2)nc1NO`, the EC50 is 9.75 µM.
As for `Cc1nc2c3ccccc3nc(NNC(=O)CCC(=O)NCCN3CCN(c4ccccc4)CC3)n2n1`, the EC50 was 15.3 µM.
`c1ccc(-c2cccc(-c3ccccn3)n2)nc1`: the EC50 was 27.1 µM.
To `O=c1c2ccccc2nc(N/N=C/c2c(O)ccc3ccccc23)n1O` belongs 35.2 µM; to `O=C(CCCCC(=O)NNC(=O)COc1ccccc1)NNC(=O)COc1ccccc1`, 12 µM; to `CSCCC(NS(=O)(=O)c1ccc(C)cc1)C(=O)NNC(=O)c1csc(N2CCOCC2)n1` (stereo not given), 16.1 µM.
Take `CCOc1ccc(CC(=O)NNC(=S)NC2CCCCC2)cc1OCC`: the EC50 was 20.4 µM.
For `CCn1nc(C)c(CN2CCC(C(=O)Nc3cccc(-c4cccc(F)c4)c3)CC2)c1C`, the EC50 is 53.7 µM.
For the molecule `O=C(N/N=C/c1c(O)ccc2ccccc12)c1[nH]ncc1Br`, the EC50 was 11 µM.
As for `CCOC(=O)c1c(C)[nH]c(C(=O)N/N=C/c2cc([N+](=O)[O-])ccc2O)c1C`, the 50% effective concentration (EC50) was 23.2 µM.
To `O=C(O)c1ccccc1C(=O)Nc1cc(-c2ccccc2)[nH]n1` belongs > 100 µM (inactive).
In the case of `Cc1ccc(NC(=O)NNC(=O)c2cc3ccccc3cc2O)cc1`, the EC50 is 15.3 µM.
In the case of `Cc1cc(Br)ccc1SCC(=O)OC/C(O)=C(\C#N)c1nc2ccccc2[nH]1` it was 25.5 µM.
In the case of `CN(CC(=O)Nc1ccccc1F)CC(=O)Nc1ccc(F)c(F)c1F` it was 28.4 µM; in that of `Cc1cc(C(=O)NC2CC(C)(C)Cc3c2cnn3-c2ccccc2)n[nH]1` (stereo not given), 53.1 µM; in that of `Cc1nc(S/C(=C/c2ccc(-c3ccc(Cl)cc3)o2)C(=O)O)n[nH]1`, 13.2 µM.
Take `Cc1ccsc1C(=O)NNC(=S)NC1CCCCC1`: the EC50 is 14.3 µM.
In the case of `COc1cc(OC)cc(C(=O)NNC(=O)c2nn(C)c(=O)c3ccccc23)c1`, the EC50 was 13.9 µM.
For `CC(C)(C)NC(=O)C(=O)NNC(=O)COc1ccccc1`, the EC50 was 35.9 µM.
On to `O=c1cc(-c2ccccc2)[nH]n1-c1nc2ccccc2[nH]1`, for which the 50% effective concentration (EC50) is 15.2 µM.
Regarding `CCN(CC)c1ccc(/C=N/NC(=O)c2nnn(-c3nonc3N)c2C(C)C)c(O)c1`, the half-maximal effective concentration (EC50) is 73.7 µM.
`O=C(NN1C(=O)CSC1=S)C(=O)NN1C(=O)CSC1=S`: the EC50 is 14.5 µM.
As for `COc1ccc(C2=NN(C3=NN=C(N)Cc4ncnn43)C(O)(C(F)(F)F)C2)cc1` (stereo not given), the half-maximal effective concentration (EC50) is 14.4 µM.
As to `COc1ccccc1C1=NN(C2=NN=C(N)Cc3ncnn32)C(O)(C(F)(F)F)C1` (stereo not given), the 50% effective concentration (EC50) was 12.3 µM.
As to `CN(Cc1ccccc1)C(=O)c1[nH]cnc1C(=O)Nc1nccs1`, the EC50 is 17.8 µM.
On to `O=C(N/N=C/c1ccc(O)cc1O)C(=O)N/N=C/c1ccc(O)cc1O`, for which the half-maximal effective concentration (EC50) is 5.73 µM.
As for `CC(C)n1cc(CN2CCC(C(=O)Nc3cccc(-c4cccc(Cl)c4)c3)CC2)cn1`, the EC50 was 78.1 µM.
Take `Cc1nc2c3ccccc3nc(NNC(=O)CCC(=O)N3CCCC(C)C3)n2n1` (stereo not given): the EC50 was 13.5 µM.
As for `CCOc1ccc(/C=N/NC(=O)c2[nH]ncc2Br)c(O)c1`, the EC50 is 11.2 µM.
As to `COc1ccccc1CCNC(=O)C1CCN(c2nnc(C)c3c(C)n(-c4ccc(C)cc4)nc23)CC1`, the EC50 was 56 µM.
In the case of `COc1cccc(/C=N\NC(=O)C2=NNC(=O)C2C)c1O` (stereo not given) it was 7.82 µM.
Take `Cc1cccc(CC(Cc2nc3ccccc3[nH]2)c2nc3ccccc3[nH]2)c1` (stereo not given): the EC50 is 60.8 µM.
For the molecule `COc1cc(NC(=O)NCC2CCN(Cc3ccccc3C)CC2)cc(OC)c1OC`, the EC50 is 78.9 µM.

Source of the values: PubChem BioAssay AID488888 (Sanford-Burnham Center for Chemical Genomics, 2010).
